Changes are numbered by the printed parent chain. Like-named read-outs stand apart in the source and are kept apart here.
How the values were obtained:
[1] = molecular target: rec-L-N-carbamoylase from A.a. (Paenarthrobacter aurescens, UniProt Q9F464); type: biochemical, Arthrobacter aurescens; details: pH 8.5, homogeneously purified enzyme
Description: (§1) The substrate specificity of the carbamoylase was investigated with homogeneously purified enzyme. The latter was obtained after cell maceration and ion exchange chromatography on Streamline-DEAE- and MonoQ media. A solution of the particular substrate was produced in a concentration of 1.8 mM (exception N-carbamoyl-L-methionine: 50 mM) in 0.1 M TRIS-HCl, pH 8.5 and used instead of the standard substrate in the standard activity test. Instead of the trichloroacetic acid (TCA) used in the standard test for stopping, in the case of the substrates N-formyl-D,L-tryptophane, N-carbamoyl-L-thienylalanine and N-acetyl-D,L-tryptophane heat denaturation was used to terminate the reaction (incubation for 10 min in a boiling water bath) and in the case of the substrate N-carbamoyl-D,L-phenylalanine, addition of 900 μl methanol to 100 μl assay solution was used. The concentration of the amino acid was subsequently determined either by HPLC or colorimetrically after reaction with ninhydrin.
(§2) 5 ml of a cell culture induced with rhamnose are centrifuged at 3000 rpm for 5 min in a Heraeus Megafuge, washed with 5 ml buffer (200 mM TRIS-HCl, pH 7.0), re-centrifuged, taken up in 1 ml buffer (200 mM TRIS-HCl, 0.1 mM MnCl2 pH 7.0) and macerated by ultrasound (Ultrasonics Sonicator, microtip, 2×30 sec, duty cycle 50%). Cell fragments are removed by centrifugation in an Eppendorf centrifuge at 13000 rpm, 10 min. The supernatant, designated as raw extract, is used for the enzyme measurement. 100 μl raw extract or cleaned-up enzyme is mixed with 800 μl 2 mM N-carbamoyl amino acid preheated to 37° C. in 100 mM TRIS-HCl, pH 8.5 and incubated 10 min at 37° C. The reaction is stopped by the addition of 400 μl trichloroacetic acid. The precipitated protein is separated by centrifugation in an Eppendorf centrifuge at 13000 rpm for 10 min. The supernatant is subsequently measured in an HPLC or calorimetrically (ninhydrin). The separation of the reaction mixture takes place in an HPLC with an RP-18 column, the mobile solvent is 0.3% (V/V) phosphoric acid, 80% methanol, flow rate 1.0 ml/min. The detection takes place by measuring the UV absorption at a wavelength of 280 nm.

[2] = substrate: NC(=O)N[C@@H](Cc1c[nH]c2ccccc12)C(=O)O; assay: purified protein, by the assay type; type: biochemical, Arthrobacter aurescens; details: other: homogeneously purified enzyme, 0.1 M TRIS-HCl, pH 8.5, 37.0 °C
Description: as §1, §2

[3] = substrate: NC(=O)N[C@@H](Cc1ccc(O)cc1)C(=O)O; assay: purified protein, by the assay type; type: biochemical, Arthrobacter aurescens; details: other: homogeneously purified enzyme, 0.1 M TRIS-HCl, pH 8.5, 37.0 °C
Description: as §1, §2

[4] = substrate: NC(=O)N[C@@H](Cc1cccs1)C(=O)O; assay: purified protein, by the assay type; type: biochemical, Arthrobacter aurescens; details: other: homogeneously purified enzyme, 0.1 M TRIS-HCl, pH 8.5, 37.0 °C
Description: as §1, §2

[5] = substrate: O=CNC(Cc1c[nH]c2ccccc12)C(=O)O; assay: purified protein, by the assay type; type: biochemical, Arthrobacter aurescens; details: other: homogeneously purified enzyme, 0.1 M TRIS-HCl, pH 8.5, 37.0 °C
Description: as §1, §2

[6] = substrate: NC(=O)NC(Cc1ccccc1)C(=O)O; assay: purified protein, by the assay type; type: biochemical, Arthrobacter aurescens; details: other: homogeneously purified enzyme, 0.1 M TRIS-HCl, pH 8.5, 37.0 °C
Description: as §1, §2

[7] = N-L-carbamoylase activity of raw extract of rhamnose-induced E. coli JM109/pAW178-2; type: biochemical, Arthrobacter aurescens; details: 9 h after rhamnose induction, approximately maximum; N-carbamoyl-L-tryptophane as substrate
Description: 1 ml of an overnight culture of E. coli JM109/pAW178-2 (FIG. 1) in LBamp is added into 100 ml fresh LBamp medium in a one-liter Erlenmeyer flask and the latter incubated at 30° C. in a water bath under agitation (200 rpm). 1 ml of a 20% rhamnose solution is added to the culture at an optical density of the culture of 0.5 (measured at a wavelength of 600 nm in a photometer) (end concentration […]) and the culture incubated further. After a further 9 h incubation approximately the maximum of the N-L-carbamoylase activity is achieved, a specific activity of 1.8 units/mg raw extract, measured with N-carbamoyl-L-tryptophane as substrate. No activity was found in cultures which had not been induced with rhamnose.
5 ml of a cell culture induced with rhamnose are centrifuged at 3000 rpm for 5 min in a Heraeus Megafuge, washed with 5 ml buffer (200 mM TRIS-HCl, pH 7.0), re-centrifuged, taken up in 1 ml buffer (200 mM TRIS-HCl, 0.1 mM MnCl2 pH 7.0) and macerated by ultrasound (Ultrasonics Sonicator, microtip, 2×30 sec, duty cycle 50%). Cell fragments are removed by centrifugation in an Eppendorf centrifuge at 13000 rpm, 10 min. The supernatant, designated as raw extract, is used for the enzyme measurement. […] The supernatant is subsequently measured in an HPLC or calorimetrically (ninhydrin). […]

[8] = Temperature stability of the rec-L-N-carbamoylase (storage, then standard activity test); type: physicochemical, Arthrobacter aurescens
Description: FIG. 2: Standard activity assay of the isolated recombinant Arthrobacter aurescens N-L-carbamoylase enzyme isolated from E.coli. The N-L-carbamoylase was isolated after cell maceration and ion exchange chromatography on Streamline DEAE and MonoQ media. N-L-carbamoylase activity was determined by reacting with the substrate N-carbamoyl-L-tryptophane over 100 hours wherein the concentration of the amino acid tryptophan was determined in order to calculate N-L carbamoylase activity. The N-L-carbamoylase enzyme activity was measured and reached a relative activity level of around 100% between hours 40 and […] of incubation 37° C.
[…] The standard test for determination of activity was carried out at time intervals of 1-100 h.
as §2

[9] = substrate 1.8 mM in 0.1 M TRIS-HCl, n.n. = can not be detected

## CC(=O)NC(Cc1c[nH]c2ccccc12)C(=O)O (racemic) [N-acetyl-D,L-tryptophane]
[1]; [9]
  Activity %: n.n.

## NC(=O)NC(CC(=O)O)C(=O)O (racemic) [N-carbamoyl-D,L-aspartate]
[1]; [9]
  Activity %: n.n.

## NC(=O)NC(Cc1ccccc1)C(=O)O (racemic) [N-carbamoyl-D,L-phenylalanine]
[1]; [9]
  Activity %: 97%

## O=CNC(Cc1c[nH]c2ccccc12)C(=O)O (racemic) [N-formyl-D-L-tryptophane]
[1]; [9]
  Activity %: 97%

## NC(=O)N[C@H](Cc1ccccc1)C(=O)O [N-carbamoyl-D-phenylalanine]
[1]; [9]
  Activity %: n.n.

## NC(=O)N[C@@H](C(=O)O)c1ccccc1 [N-carbamoyl-D-phenylglycine]
[1]; [9]
  Activity %: n.n.

## NC(=O)N[C@H](Cc1c[nH]c2ccccc12)C(=O)O [N-carbamoyl-D-tryptophane]
[1]; [9]
  Activity %: n.n.

## N=C(N)NCCC[C@H](NC(N)=O)C(=O)O [N-carbamoyl-L-arginine]
[1]; [9]
  Activity %: n.n.

## NC(=O)N[C@@H](CCC(=O)O)C(=O)O [N-carbamoyl-L-glutamate]
[1]; [9]
  Activity %: n.n.

## CSCC[C@H](NC(N)=O)C(=O)O [N-carbamoyl-L-methionine]
[1]; substrate 50 mM (exception) in 0.1 M TRIS-HCl
  Activity %: 17%

## NC(=O)N[C@H](C(=O)O)c1ccccc1 [N-carbamoyl-L-phenylglycine]
[1]; [9]
  Activity %: n.n.

## NC(=O)N[C@@H](Cc1cccs1)C(=O)O [N-carbamoyl-L-thienylalanine]
[1]; [9]
  Activity %: 314%

## NC(=O)N[C@@H](Cc1c[nH]c2ccccc12)C(=O)O [N-carbamoyl-L-tryptophane]
[1]; [9]
  Activity %: 100%

## NC(=O)N[C@@H](Cc1ccc(O)cc1)C(=O)O [N-carbamoyl-L-tyrosine]
[1]; [9]
  Activity %: 126%

## NC(=O)NCCC(=O)O [N-carbamoyl-β-alanine]
[1]; [9]
  Activity %: n.n.

## O=CN[C@@H](CC(=O)O)C(=O)O [N-formyl-L-aspartate]
[1]; [9]
  Activity %: n.n.

B1: rec-L-N-carbamoylase from A.a. (Paenarthrobacter aurescens) (protein)
chain: MTLQKAQAERIEKEIRELSRFSAEGPGVTRLTYTPEHAAARETLIAAMKAAALSVREDALGNIIGRREGTDPELPAIAVGSHFDSVRNGGMFDGTAGVVCALEAARVMLENGYVNRHPFEFIAIVEEEGARFSSGMLGGRAIAGLVADRELDSLVDEDGVSVRQAATAFGLKPGELQAAARSAADLRAFIELHIEQGPILEQEQIEIGVVTSIVGVRALRVAVKGRSDHAGTTPMHLRQDALVPAALMVREVNRFVNEIADGTVATVGHLTVAPGGGNQVPGEVDFTLDLRSPHEESLRVLIDRISVMVGEVASQAGVAADVDEFFNLSPVQLAPTMVDAVREAASALQFTHRDISSGAGHDSMFIAQVTDVGMVFVPSRAGRSHVPEEWTDFDDLRKGTEVVLRVMKALDR
[2]
  Km: 0.12 MM
[3]
  Km: 0.3 MM
[4]
  Km: 2.3 MM
[5]
  Km: 8.5 MM
[6]
  Km: 0.7 MM

B2: rec-carbamoylase: recombinant L-N-carbamoylase from Arthrobacter aurescens (hyuC gene, SEQ ID NO:2) expressed in E. coli (protein, listed as Arthrobacter aurescens)
chain: B1 chain with E9A
[7]
  specific activity: 1.8 units/mg raw extract
[8]; 37° C., 100 h, homogeneously purified recombinant enzyme
  activity on storage at 37° C.: almost unchanged
[8]; 50° C.
  duration of activity at 50° C.: hours
[8]; between hours 40 and 140 of incubation 37° C., substrate N-carbamoyl-L-tryptophane (FIG. 2)
  relative activity level: around 100%
